Entries after “also recorded” stand apart in the source; their conditions may differ.
Columns and labels:
TGEV = test: Time-of-drug-addition assay with TGEV in ST cells (inactivation, adsorption, penetration, replication, release); format: cell-based, transmissible gastroenteritis virus
Procedure: Fig 4 PM dampens TGEV infection by mainly blocking viral entry. (A) Inactivated assay. TGEV (0.1 MOI, red bar) and PM (10 mΜ) or H2O (blue bar) were mixed and incubated at 37°C for 3 and 5 h, respectively, and then the mixtures were added into ST cells. After incubation at 37°C for another 1 h, culture supernatants were replaced with fresh culture medium for 17 h at 37°C. After washing with PBS, the mRNA levels and viral load of TGEV N protein were measured by RT-qPCR. (B) Adsorption assay. ST cells were pretreated with PM (10 mΜ) or H2O (blue bar) for 1 h at 37°C, and then the media were replaced by a mixture of PM (10 mΜ) or H2O and TGEV (5 MOI, red bar) for 0.5 or 1 h at 4°C. After washing with PBS, the genomic RNA levels and viral load of TGEV N protein were measured by RT-qPCR. (C and D) Penetration assay. ST cells were infected with 5 MOI TGEV (red bar) for 1 h at 4°C and were then treated with PM (10 mΜ) or H2O (blue bar) for 1 or 2 h at 37°C after washing with PBS. The cell samples were washed using sodium citrate buffer and tested through RT-qPCR (C) and IFA (D), scale bar: 50 µm/5 µm. (E) Replication assay. ST cells infected with 5 MOI TGEV (red bar) were incubated at 37°C for 3 h and washed with sodium citrate buffer. Then, cells were treated with PM (10 mΜ) or H2O (blue bar) for 5 or 13 h. The cells were harvested and examined by RT-qPCR. (F) Release assay. ST cells were infected with 5 MOI TGEV (red bar) for 16 h and then PM (10 mΜ) or H2O (blue bar) was added to the cells for 1 or 2 h. qRT-PCR was used to test the mRNA levels and viral load of the virus in the supernatant. Results are presented as mean ± SD of data from three independent experiments. ***, P ≤ 0.001; ns, no significance. […]
red bar) and PM (10 mΜ) or H2O (blue bar) were mixed and incubated at 37 °C for 3 h and 5 h respectively and then the mixtures were added into ST cells. After incubation at 37°C for another 1 h, culture supernatants were replaced with fresh culture medium for 17 h at 37°C. Viral titers were detected by TCID50. (B) Release assay. ST cells were infected with 0.1 MOI TGEV (red bar) for 16 h and then PM (10 mΜ) or H2O (blue bar) was added to the cells for 1 h or 2 h. TCID50 was used to test the viral titers in supernatant. Results are presented as mean ± SD of data from three independent experiments ns, no significant.
(also on this page, place not known: 3h 5h 0 2 4 6 8 H2O PM log10 TCID50/ml ns ns 0 2 4 6 8 H2O PM log10 TCID50/ml ns ns -3h-5h 17h 18h CollectedPM/H2O) […]

APN = APN expression in HEK-293T cells (western blot); format: cell-based, human; conditions: for APN level, western blot quantified by Image J, relative to no PM (=1): PM 10 mM
Procedure: Fig. S6. PM degrades human and mouse-derived APN expression. (A and B) HEK-293T cells (A) and […] (B) were treated with PM (10 mM) for 8 h or 16 h respectively, APN expression was measured by western blot. All western blot results were calculated by Image J. All experiments were […]
PM(10mM) - + - + PM(10mM) - + - + […]

PDCoV = PDCoV infection of PK1 cells (RT-qPCR); format: cell-based; conditions: PM 10 mM, PDCoV 0.1 MOI, 17 h
Procedure: Fig. S1. […] (A) The PK1 cells, pretreated with PM (10mM) concentrations for 1 h were infected with PDCoV (0.1 MOI) for 1 h and were again treated with PM at 37 °C for 17 h.
The cell samples were collected and examined by RT-qPCR . Results are presented as mean ± SD of data from three independent experiments ***, P≤ 0.001.
(also on this page, place not known: RT-qPCR. + - + + 2 3 4 5 6Viral load(log copies/ul) *** PDCoV PM PDCoV M)
(1 picture or pasted object on this page, not shown here)

PRCV = PRCV infection of porcine intestinal organoids (monolayer, apical-out); format: cell-based, porcine respiratory coronavirus; conditions: monolayer 24 h; apical-out 1 MOI, 48 h; IFA, RT-qPCR, TCID50, western blot
Procedure: Fig 2 PM restricts TGEV and PRCV infection in porcine intestinal organoids. (A) Intestinal organoids cultured in 96-well plate were incubated with different concentrations of PM for 24 h, which was tested by Cell Counting Kit 8. (B and C) The intestinal organoids monolayer was treated with indicated PM and infected with TGEV Miller (0.1 MOI) for 24 h, which was measured by IFA (B), scale bar: 50 µm, RT-qPCR, TCID50, and western blot (C). (D) Apical-out intestinal organoids were treated with indicated PM and infected TGEV Miller (1 MOI) for 48 h, which was determined by RT-qPCR, TCID50, and western blot. (E and F) The intestinal organoids monolayer was treated with different concentrations of PM and infected with PRCV for 24 h, which was determined by IFA (E), scale bar: 50 µm, RT-qPCR, TCID50, and western blot (F). (G) Apical-out intestinal organoids were treated with indicated PM and infected PRCV (1 MOI) for 48 h, which was detected by RT-qPCR, TCID50, and western blot. Results are presented as mean ± SD of data from three independent experiments. **, P ≤ 0.01; ***, P ≤ 0.001.
Porcine 3D ileum organoids coated with Matrigel for 1 week were dissociated by incubation in 5 mM cold EDTA buffer on a rotating platform for 1 h at 4°C. […]

## [K+].[K+].[O]=[Mo](=[O])([O-])[O-] [PM, potassium molybdate]
TGEV; PM 10 mM mixed with TGEV 0.1 MOI at 37°C for 3 and 5 h, RT-qPCR, TCID50
  direct inactivation of TGEV (inactivated assay): cannot inactivate TGEV and affect viral release
TGEV; ST cells, PM 10 mM added 16 h after infection for 1 or 2 h, RT-qPCR, TCID50 of supernatant
  TGEV release: cannot inactivate TGEV and affect viral release; also recorded: uninfluential in virus adsorption and release
TGEV; ST cells, PM 10 mM, TGEV 5 MOI, 0.5 or 1 h at 4°C, RT-qPCR
  TGEV adsorption: uninfluential in virus adsorption and release
TGEV; ST cells, PM 10 mM, TGEV 5 MOI, 1 or 2 h at 37°C, RT-qPCR and IFA
  TGEV entry (penetration assay): significantly inhibited TGEV entry
TGEV; ST cells, PM 10 mM, TGEV 5 MOI, PM for 5 or 13 h from 3 h after infection, RT-qPCR
  TGEV replication: moderately restricted viral replication
APN; 8 h
  APN level, western blot quantified by Image J, relative to no PM (=1): 0.42
APN; 16 h
  APN level, western blot quantified by Image J, relative to no PM (=1): 0.23
APN; PM for 8 and 16 h
  human APN expression: also decreased human and mouse-derived APN expression
PDCoV
  PDCoV infection: inhibits PDCoV infection; also recorded: effectively restricted
PRCV
  PRCV infection in organoid monolayer and apical-out organoids: the same phenotypes were found
